Experiment [1] is described as follows: Luminescence Cell-Based Dose Response to Identify Activators of 5'UTR Stem-Loop Driven Prion Protein mRNA Translation in H4-C Neuroglioblastoma Cells. [Related pubchem assays: 1829 (Project Summary), 1814 (Primary HTS)]. The class given is functional.
The nature of experiment [2]: Luminescence Cell-Based Dose Confirmation HTS to Identify Activators of 5'UTR Stem-Loop Driven Alpha-Synuclein mRNA Translation in H4 Neuroglioblastoma Cells. [Related pubchem assays: 1829 (Project Summary), 1814 (Primary HTS)]. The experiment is classed as functional.
The nature of experiment [3]: Luminescence Cell-Based Dose Response HTS to Identify Activators of Luciferase Translation or Activity in H4 […] Cells. [Related pubchem assays: 1829 (Project Summary), 1814 (Primary HTS)]. The experiment is classed as functional.
Experiment [4] concerns Streptococcus sp. 'group A'. The experiment is described as follows: growth inhibition of control SK(-) GAS strain, dose response, counter-screen for streptokinase expression inhibitor project, luminescence, kanamycin, BacTiterGlo, confirmation (AID 1900). The class given is functional, organism-based.
A further experiment deals with H4. The experiment is described as follows: Luminescence Cell-Based Dose Response HTS to Identify Activators of 5'UTR Stem-Loop Driven Prion Protein mRNA Translation in H4 Neuroglioblastoma Cells. [Related pubchem assays: 1829 (Project Summary), 1814 (Primary HTS)]. The class given is functional. The settings on record: Homo sapiens.
The target in a further experiment is T1, Streptokinase A (Streptococcus pyogenes serotype M1, UniProt P10520).
T1 sequence (P10520 whole entry): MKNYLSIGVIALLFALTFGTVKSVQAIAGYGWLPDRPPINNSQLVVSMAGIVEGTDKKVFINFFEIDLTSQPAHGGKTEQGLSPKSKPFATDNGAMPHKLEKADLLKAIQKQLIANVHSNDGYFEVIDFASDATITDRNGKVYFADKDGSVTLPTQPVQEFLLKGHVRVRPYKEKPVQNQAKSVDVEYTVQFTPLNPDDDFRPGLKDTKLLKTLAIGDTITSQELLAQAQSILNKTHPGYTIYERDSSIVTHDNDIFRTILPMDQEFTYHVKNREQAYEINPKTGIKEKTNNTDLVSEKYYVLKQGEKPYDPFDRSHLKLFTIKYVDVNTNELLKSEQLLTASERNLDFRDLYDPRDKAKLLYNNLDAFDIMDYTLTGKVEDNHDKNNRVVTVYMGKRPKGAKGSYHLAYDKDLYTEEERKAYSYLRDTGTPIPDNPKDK
Briefly: S. pyogenes streptokinase expression inhibitors, potency, dose response, plasminogen activation absorbance, OD405 (AID 1914).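 Note: secreted streptokinase activity via plasminogen activation per viability signal from cell pellet.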 The class given is functional, Streptococcus pyogenes M1 GAS.

The nature of experiment [5]: Luminescence Cell-Based Dose Response to Identify Activators of Luciferase Translation or Activity in H4-C Neuroglioblastoma Cells. [Related pubchem assays: 1829 (Project Summary), 1814 (Primary HTS)]. The experiment is classed as functional.
Experiment [6] can be described thus: Luminescence Cell-Based Dose Confirmation to Identify Activators of 5'UTR Stem-Loop Driven Alpha-Synuclein mRNA Translation in H4 Neuroglioblastoma Cells. [Related pubchem assays: 1829 (Project Summary), 1814 (Primary HTS)]. The experiment is classed as functional.
In the next experiment the test system is Streptococcus. Briefly: Group A Streptococcus viability loss, dose response, counter-screen for streptokinase expression inhibitor project, luminescence, BacTiterGlo (AID 1915).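 Note: potency for reduction of bacterial viability or growth.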 The class given is functional, organism-based.
In another experiment the test system is HeLa. The experiment is described as follows: HeLa cell cytotoxicity, dose response, cytotoxicity control for MITF activator project, CellTiter-Glo luminescence, cherry-pick samples (AID 540259). The settings on record: Homo sapiens. The class given is functional, cell-based.
In experiment [7] the target is Beta-2 adrenergic receptor (Homo sapiens, UniProt P07550). Briefly: beta2AR agonists driving receptor internalization, dose response, cell-based, FAP fluorogen, flow cytometry, cherry pick 1 (AID 588763). The class given is functional.
Experiment [8] concerns the target Dual specificity tyrosine-phosphorylation-regulated kinase 1A (Rattus norvegicus, UniProt Q63470). The class given is biochemical, Homo sapiens.
In experiment [9] the target is T2, Long-chain-fatty-acid--AMP ligase FadD28 (Mycobacterium tuberculosis, UniProt P9WQ59).
T2 sequence (P9WQ59 whole entry): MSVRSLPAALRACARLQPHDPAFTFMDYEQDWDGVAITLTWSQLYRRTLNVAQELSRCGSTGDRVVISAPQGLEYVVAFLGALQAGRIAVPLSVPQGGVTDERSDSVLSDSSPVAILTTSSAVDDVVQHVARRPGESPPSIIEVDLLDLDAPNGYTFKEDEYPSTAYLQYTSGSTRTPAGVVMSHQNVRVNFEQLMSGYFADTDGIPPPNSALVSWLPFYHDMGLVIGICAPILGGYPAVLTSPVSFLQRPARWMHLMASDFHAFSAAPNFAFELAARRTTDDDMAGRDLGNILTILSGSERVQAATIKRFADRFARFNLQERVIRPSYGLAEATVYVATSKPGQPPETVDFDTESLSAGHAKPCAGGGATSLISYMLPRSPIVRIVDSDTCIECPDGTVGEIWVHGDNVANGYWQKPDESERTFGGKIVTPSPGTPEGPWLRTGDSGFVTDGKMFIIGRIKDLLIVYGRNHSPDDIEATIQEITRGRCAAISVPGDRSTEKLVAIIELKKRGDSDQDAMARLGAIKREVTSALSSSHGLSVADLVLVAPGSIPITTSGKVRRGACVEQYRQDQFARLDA
The experiment is described as follows: Fluorescence polarization aasay to screen for inhibitors that compete for the binding of FadD28 to a bisubstrate Measured in Biochemical System Using Plate Reader - 2147-01_Inhibitor_Dose_CherryPick_Activity. The experiment is classed as functional, Mycobacterium tuberculosis H37Rv.

Activity calls are given as the source filed them. Cut-off read from the data, not from the text of the source, for most assays here: actives have a measured EC50 and inactives only a lower limit.

Beta-2 adrenergic receptor, sequence (P07550 whole entry): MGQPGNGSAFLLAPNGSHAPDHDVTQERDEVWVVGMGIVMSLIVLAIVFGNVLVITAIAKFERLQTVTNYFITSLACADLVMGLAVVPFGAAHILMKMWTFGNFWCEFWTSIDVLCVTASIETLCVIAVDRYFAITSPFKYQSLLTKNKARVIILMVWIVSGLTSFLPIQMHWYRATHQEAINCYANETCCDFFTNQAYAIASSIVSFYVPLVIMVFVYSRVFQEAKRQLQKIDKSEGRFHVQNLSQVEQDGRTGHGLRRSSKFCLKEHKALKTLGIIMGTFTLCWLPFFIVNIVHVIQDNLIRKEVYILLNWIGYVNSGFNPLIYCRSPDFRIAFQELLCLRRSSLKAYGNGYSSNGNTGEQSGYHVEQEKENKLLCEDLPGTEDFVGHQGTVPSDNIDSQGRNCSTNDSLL

In the case of `Cc1cccc2nc(COc3ccc4ccccc4c3Br)cn12`, the EC50 in experiment [1] was 0.638 µM (active); in experiment [2], 0.167 µM (active); in experiment [3], < 0.1 µM (inconclusive); in [4], 12.7 µM (active); in the experiment on H4 it was > 120 µM (not active); on Streptokinase A it was > 150 µM (not active). Also, the concentration for a half-maximal effect (EC50) in experiment [5] is 0.561 µM (active); in [6] it was 0.34 µM (active); in the experiment on Streptococcus, > 150 µM (not active); in experiment [7], 3.71 µM (active). The half-maximal activity concentration (AC50) with HeLa is 73 µM (active).

As for `CCCc1ccc(OCc2nc(-c3ccc(NC(=O)c4ccco4)cc3)no2)cc1`, in [7], the half-maximal effective concentration (EC50) is 0.161 µM (active).

Regarding `Oc1ccc(/C=N/n2c(S)nnc2C2CCCCC2)c(O)c1`, the AC50 was 0.93 µM (active) in [8] and 48.8 µM (active) in experiment [9].

For the origin of these results see ChEMBL document CHEMBL1201862, “PubChem BioAssay data set” (2004).
